Columns and labels:
Format in all cases: cell-based
human TLR9 = target: T1, human TLR9 (Homo sapiens, UniProt Q9NR96); experiment: TLR9 inhibition reporter assay (HEK-Blue cells, SEAP reporter, ODN2006 stimulation); conditions: HEK-Blue cells overexpressing human TLR9, SEAP reporter, ODN2006 5 nM
T1 construct: host or cells: HEK-Blue cells
T1 sequence (Q9NR96 26-1032): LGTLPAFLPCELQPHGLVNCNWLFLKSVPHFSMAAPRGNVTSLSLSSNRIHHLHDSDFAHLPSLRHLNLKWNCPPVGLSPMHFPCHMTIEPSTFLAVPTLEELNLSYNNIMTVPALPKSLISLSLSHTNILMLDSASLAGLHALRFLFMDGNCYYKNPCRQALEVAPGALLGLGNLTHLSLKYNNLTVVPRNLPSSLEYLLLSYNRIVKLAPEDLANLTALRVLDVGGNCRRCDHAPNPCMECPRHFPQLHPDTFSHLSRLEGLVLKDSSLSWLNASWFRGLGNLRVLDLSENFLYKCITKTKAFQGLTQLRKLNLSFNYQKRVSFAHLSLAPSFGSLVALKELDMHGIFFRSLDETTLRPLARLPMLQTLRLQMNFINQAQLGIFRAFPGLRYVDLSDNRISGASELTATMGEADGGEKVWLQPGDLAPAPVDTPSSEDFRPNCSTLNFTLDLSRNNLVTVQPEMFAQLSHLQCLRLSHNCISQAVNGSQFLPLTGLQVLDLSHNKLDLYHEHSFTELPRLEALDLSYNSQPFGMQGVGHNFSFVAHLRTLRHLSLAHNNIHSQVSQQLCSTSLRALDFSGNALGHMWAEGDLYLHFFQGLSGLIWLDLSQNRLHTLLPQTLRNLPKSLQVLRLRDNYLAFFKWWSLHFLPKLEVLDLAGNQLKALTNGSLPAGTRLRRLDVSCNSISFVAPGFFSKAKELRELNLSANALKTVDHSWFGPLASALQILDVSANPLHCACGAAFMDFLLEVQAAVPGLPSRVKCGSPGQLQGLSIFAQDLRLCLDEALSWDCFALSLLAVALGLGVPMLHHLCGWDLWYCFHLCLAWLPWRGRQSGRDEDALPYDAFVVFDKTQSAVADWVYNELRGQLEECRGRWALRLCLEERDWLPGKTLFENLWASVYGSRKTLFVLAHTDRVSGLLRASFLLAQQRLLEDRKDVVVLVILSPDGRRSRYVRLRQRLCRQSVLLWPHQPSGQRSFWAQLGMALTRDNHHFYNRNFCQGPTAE
Procedure, shortened: (§1)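 Compound treatment: 30 min, RT, 0.05 nM–50 μM final. Agonist: TLR7 gardiquimod 7.5 μM; TLR8 R848 15.9 μM; TLR9 ODN2006 5 nM. Incubation 22 h, 37 °C, 5% CO2. Readout SEAP, HEK-Blue Detection.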

human TLR8 = target: T2, human TLR8 (Homo sapiens, UniProt Q9NR97); experiment: TLR8 inhibition reporter assay (HEK-Blue cells, SEAP reporter, R848 stimulation); conditions: HEK-Blue cells overexpressing human TLR8, SEAP reporter, R848 15.9 μM; read-out: TLR8 IC50
T2 construct: host or cells: HEK-Blue cells
T2 sequence (Q9NR97 27-1041): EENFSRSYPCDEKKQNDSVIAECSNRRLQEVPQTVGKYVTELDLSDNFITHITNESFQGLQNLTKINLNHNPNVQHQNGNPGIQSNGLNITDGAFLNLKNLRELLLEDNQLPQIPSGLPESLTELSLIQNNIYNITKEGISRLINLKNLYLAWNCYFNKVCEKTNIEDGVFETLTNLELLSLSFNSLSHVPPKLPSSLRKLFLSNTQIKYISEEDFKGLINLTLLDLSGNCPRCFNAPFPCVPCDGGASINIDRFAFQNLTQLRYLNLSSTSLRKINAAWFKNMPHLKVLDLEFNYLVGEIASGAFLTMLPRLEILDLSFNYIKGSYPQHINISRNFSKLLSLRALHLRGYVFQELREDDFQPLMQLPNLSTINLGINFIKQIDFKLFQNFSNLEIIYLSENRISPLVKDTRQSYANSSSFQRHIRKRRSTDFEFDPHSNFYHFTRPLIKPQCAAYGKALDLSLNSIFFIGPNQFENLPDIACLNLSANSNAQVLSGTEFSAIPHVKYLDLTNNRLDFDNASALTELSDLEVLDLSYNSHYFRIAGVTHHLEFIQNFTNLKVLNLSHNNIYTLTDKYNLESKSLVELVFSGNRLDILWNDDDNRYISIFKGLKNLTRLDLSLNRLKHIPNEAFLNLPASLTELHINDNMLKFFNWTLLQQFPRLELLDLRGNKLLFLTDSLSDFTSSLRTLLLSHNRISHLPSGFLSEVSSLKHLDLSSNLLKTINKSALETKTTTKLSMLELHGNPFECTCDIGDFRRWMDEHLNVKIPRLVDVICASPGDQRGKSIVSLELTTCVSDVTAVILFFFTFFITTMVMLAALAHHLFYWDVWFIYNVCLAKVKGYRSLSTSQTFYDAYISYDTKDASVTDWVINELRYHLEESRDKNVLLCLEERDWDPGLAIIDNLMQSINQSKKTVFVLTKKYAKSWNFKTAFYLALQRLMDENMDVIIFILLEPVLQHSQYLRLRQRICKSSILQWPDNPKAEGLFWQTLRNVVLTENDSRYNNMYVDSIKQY
Procedure, shortened: as §1

human TLR7 = target: T3, human TLR7 (Homo sapiens, UniProt Q9NYK1); experiment: TLR7 inhibition reporter assay (HEK-Blue cells, SEAP reporter, gardiquimod stimulation); conditions: HEK-Blue cells overexpressing human TLR7, SEAP reporter, gardiquimod 7.5 μM; read-out: TLR7 IC50
T3 construct: host or cells: HEK-Blue cells
T3 sequence (Q9NYK1 27-1049): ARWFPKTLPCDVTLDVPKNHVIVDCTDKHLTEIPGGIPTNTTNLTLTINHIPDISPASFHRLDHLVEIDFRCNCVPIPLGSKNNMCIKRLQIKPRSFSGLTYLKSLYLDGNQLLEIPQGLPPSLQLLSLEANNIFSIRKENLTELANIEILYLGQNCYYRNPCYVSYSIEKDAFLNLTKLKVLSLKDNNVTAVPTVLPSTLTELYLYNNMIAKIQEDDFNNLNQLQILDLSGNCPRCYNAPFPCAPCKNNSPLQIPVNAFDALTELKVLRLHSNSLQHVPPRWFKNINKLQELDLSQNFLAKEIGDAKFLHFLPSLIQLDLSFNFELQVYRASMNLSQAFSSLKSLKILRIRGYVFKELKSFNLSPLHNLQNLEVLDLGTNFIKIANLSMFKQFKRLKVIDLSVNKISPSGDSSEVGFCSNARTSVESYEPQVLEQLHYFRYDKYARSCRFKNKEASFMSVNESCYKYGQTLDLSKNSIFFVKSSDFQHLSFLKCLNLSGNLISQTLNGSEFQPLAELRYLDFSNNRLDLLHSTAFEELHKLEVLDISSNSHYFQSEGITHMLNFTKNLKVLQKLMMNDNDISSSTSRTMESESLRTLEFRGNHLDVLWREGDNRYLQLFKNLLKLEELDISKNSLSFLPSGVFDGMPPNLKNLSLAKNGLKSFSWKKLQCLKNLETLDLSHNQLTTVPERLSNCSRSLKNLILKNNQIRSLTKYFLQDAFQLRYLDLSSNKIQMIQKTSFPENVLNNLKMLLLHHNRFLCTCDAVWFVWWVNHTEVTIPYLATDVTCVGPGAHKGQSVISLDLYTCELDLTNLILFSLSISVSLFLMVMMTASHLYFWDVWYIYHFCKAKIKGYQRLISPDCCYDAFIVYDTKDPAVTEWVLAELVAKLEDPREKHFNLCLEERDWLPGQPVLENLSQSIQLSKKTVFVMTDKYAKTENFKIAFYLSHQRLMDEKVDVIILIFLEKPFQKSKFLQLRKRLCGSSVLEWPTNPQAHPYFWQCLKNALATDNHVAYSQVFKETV
Procedure, shortened: as §1

Structure (SMILES) | IC50 (human TLR9) [nM] | IC50 (human TLR8) [nM] | IC50 (human TLR7) [nM]
Cc1c(-c2[nH]c3sc(C4CCC(NCC5(S(C)(=O)=O)CC5)CC4)nc3c2C(C)C)cn2ncnc2c1C (single isomer, unassigned) [Example 214, 4-(5-(7,8-dimethyl-[1,2,4]triazolo[1,5-a]pyridin-6-yl)-6-isopropyl-4H-pyrrolo[3,2-d]thiazol-2-yl)-N-((1-(methylsulfonyl)cyclopropyl)methyl) cyclohexan-1-amine] | 10300 | 0.39 | 1.37
Cc1c(-c2[nH]c3sc(C4CCC(NCC5(S(C)(=O)=O)CC5)CC4)nc3c2C(C)C)cn2ncnc2c1C (single isomer, unassigned) [Example 215, 4-(5-(7,8-dimethyl-[1,2,4]triazolo[1,5-a]pyridin-6-yl)-6-isopropyl-4H-pyrrolo[3,2-d]thiazol-2-yl)-N-((1-(methylsulfonyl)cyclopropyl)methyl) cyclohexan-1-amine] | 15000 | 6 | 2.3
Cc1c(-c2[nH]c3sc(C4CCC(N5CCNC(=O)C5)CC4)nc3c2C(C)C)cn2ncnc2c1C (single isomer, unassigned) [Example 220, 4-(4-(5-(7,8-dimethyl-[1,2,4]triazolo[1,5-a]pyridin-6-yl)-6-isopropyl-4H-pyrrolo[3,2-d]thiazol-2-yl)cyclohexyl) piperazin-2-one] | > 50000 | 4.38 | 1.4
Cc1c(-c2[nH]c3sc(C4CCC(N5CCNC(=O)C5)CC4)nc3c2C(C)C)cn2ncnc2c1C (single isomer, unassigned) [Example 221, 4-(4-(5-(7,8-dimethyl-[1,2,4]triazolo[1,5-a]pyridin-6-yl)-6-isopropyl-4H-pyrrolo[3,2-d]thiazol-2-yl)cyclohexyl) piperazin-2-one] | > 50000 | 33.3 | 3.08
Cc1c(-c2[nH]c3sc(C4CCC(N(C)C(C)C)CC4)nc3c2C(C)C)cn2ncnc2c1C (single isomer, unassigned) [Example 222, 4-(5-(7,8-dimethyl-[1,2,4]triazolo[1,5-a]pyridin-6-yl)-6-isopropyl-4H-pyrrolo[3,2-d]thiazol-2-yl)-N-isopropyl-N-methylcyclohexan-1-amine] | 30400 | 1.94 | 0.75
Cc1c(-c2[nH]c3sc(C4CCC(N(C)C(C)C)CC4)nc3c2C(C)C)cn2ncnc2c1C (single isomer, unassigned) [Example 223, 4-(5-(7,8-dimethyl-[1,2,4]triazolo[1,5-a]pyridin-6-yl)-6-isopropyl-4H-pyrrolo[3,2-d]thiazol-2-yl)-N-isopropyl-N-methylcyclohexan-1-amine] | 14300 | 10.3 | 8.65

Second part, the compound after the results:

IC50 (human TLR9) [nM] | IC50 (human TLR8) [nM] | IC50 (human TLR7) [nM] | Structure (SMILES)
25500 | 3.41 | 4.64 | Cc1c(-c2[nH]c3sc(C4CCC(N5CCOCC5)CC4)nc3c2C(C)C)cn2ncnc2c1C (single isomer, unassigned) [Example 213, 4-(4-(5-(7,8-dimethyl-[1,2,4]triazolo[1,5-a]pyridin-6-yl)-6-isopropyl-4H-pyrrolo[3,2-d]thiazol-2-yl)cyclohexyl) morpholine]
6520 | 1.02 | 0.72 | Cc1c(-c2[nH]c3sc(C4CCC(N5CCC5)CC4)nc3c2C(C)C)cn2ncnc2c1C (single isomer, unassigned) [Example 216, 2-(4-(azetidin-1-yl)cyclohexyl)-5-(7,8-dimethyl-[1,2,4]triazolo[1,5-a]pyridin-6-yl)-6-isopropyl-4H-pyrrolo[3,2-d]thiazole]
5870 | 5.3 | 2.41 | Cc1c(-c2[nH]c3sc(C4CCC(N5CCC5)CC4)nc3c2C(C)C)cn2ncnc2c1C (single isomer, unassigned) [Example 217, 2-(4-(azetidin-1-yl)cyclohexyl)-5-(7,8-dimethyl-[1,2,4]triazolo[1,5-a]pyridin-6-yl)-6-isopropyl-4H-pyrrolo[3,2-d]thiazole]
35900 | 18.6 | 1.44 | Cc1c(-c2[nH]c3sc(C4CCC(N5CC(F)(F)C5)CC4)nc3c2C(C)C)cn2ncnc2c1C (single isomer, unassigned) [Example 218, 2-(4-(3,3-difluoroazetidin-1-yl)cyclohexyl)-5-(7,8-dimethyl-[1,2,4]triazolo[1,5-a]pyridin-6-yl)-6-isopropyl-4H-pyrrolo[3,2-d]thiazole]
46200 | 713 | 637 | Cc1c(-c2[nH]c3sc(C4CCC(N5CC(F)(F)C5)CC4)nc3c2C(C)C)cn2ncnc2c1C (single isomer, unassigned) [Example 219, 2-(4-(3,3-difluoroazetidin-1-yl)cyclohexyl)-5-(7,8-dimethyl-[1,2,4]triazolo[1,5-a]pyridin-6-yl)-6-isopropyl-4H-pyrrolo[3,2-d]thiazole]
